Results as given in paper PMC9652379, “Safety evaluations of a synthetic antimicrobial peptide administered intravenously in rats and dogs” (Scientific Reports, 2022).
Values after ≈ are worked out from the molar mass of the structure shown. Positions of bridges follow the written chain, without caps; N, C: chain ends. Non-standard residues stand in square brackets, D forms with d. Residues, ends and D or L forms follow the SMILES beside them. Chains are numbered I, II in the order given. βAla = NCCC(=O)O

Assays:
[1] = Dose range finding in rats: toxicokinetics; assay type: in vivo, rat; details: for quantifiable plasma concentrations until, post-dose: rat, in vivo; for mean AUCt ratio, low vs. high dose (theoretical ratio 2) / mean Cmax ratio, low vs. high dose (theoretical ratio 2): rats, 10 vs 20 mg/kg/day iv bolus
Procedure: SET-M33 concentration was determined after administration by intravenous bolus for 7 days at 10 mg/kg/day and 20 mg/kg/day. Exposure parameters (AUCt and Cmax) were compared in order to evaluate dose-dependency, accumulation ratio and sex-related differences. […] Mean plasma levels of SET-M33 increased in parallel with dose in males and females. Mean time to maximum concentrations (tmax) were observed immediately after administration, 5 min post-dose for both periods (days 1 and 7) and sexes, coherently with intravenous bolus administration.
Blood samples were collected from the retro-orbital plexus of animals under light isoflurane anaesthesia. Blood samples were taken from three males and three females at each extraction time. Sampling times were as follows: Day 1: 5, 15, 30 and 60 min after administration. Day 7: pre-dose and 5, 15, 30, 60 min and 24 h after administration. Control animals were bled only once on days 1 and 7 of treatment at 30 min after treatment. Each blood sample was collected into a polypropylene test tube containing lithium heparin as anticoagulant and kept in an ice bath until centrifuging (1600 g for 10 min at 2–8 °C). The plasma from each sample was transferred to a fresh polypropylene test tube, immediately frozen in dry ice and stored at − 20 °C ± 5.

Sprague Dawley rats = details: rat, in vivo, iv, 15 mg/kg/day
Procedure: Necroscopy and histopathological examinations were performed at the end of treatment and at the end of the recovery period. Macroscopic changes were recorded in the kidneys (pale coloration and a reddened medullary area in almost all males and females from groups on 9 and 15 mg/kg/day) and bladder (distended in a few males of all treated groups). These findings were also recorded at the end of the recovery period affecting all animals dose at 15 mg/kg/day (pale coloration of the kidneys) or one male (distended urinary bladder). […] At the end of the recovery period the mean weight of the spleen (both sexes) and the mean weight of the kidneys and ovaries (females) from animals treated at 15 mg/kg/day were still higher with respect to control group. […] For 15 mg/kg/day group, the changes observed in the kidneys, bone marrow, uterine cervix and vagina were not reversible (see Supplementary Material for images and number of animals affected by these irreversible abnormalities), while the rest of the findings were fully (femorotibial growth plate and duodenum) or partially recovered (heart, ovaries and mammary glands) after 2 weeks of recovery period.
All animals underwent necropsy. Descriptions of all macroscopic abnormalities were recorded. […]

beagle dogs [2] = experiment: Dose range finding in dogs: clinical signs, body weight, survival; assay type: in vivo, dog
Procedure: The purpose of this study was to conduct DRF for SET-M33 administered by short intravenous infusion (30 min) to beagle dogs at 4.0 and 8.0 mg/kg/day (7-day treatment period). Two animals served as control group (one male, one female), and four animals were assigned to treated groups (two males, two females). The doses were determined by a preliminary study not reported here.
Naïve beagle dogs were used for the toxicity studies. The animals were supplied by Marshall US. They were 9–10 months old at the start of treatment with a body-weight range of 9.1–10 kg for the DRF study. They were 6–7 months old at the start of treatment with a body-weight range of 6.6–8.6 kg for males and 5.1–6.5 kg for females for the 4-week toxicity study. The method of administration was an intravenous short infusion with an infusion pump, alternately either into the cephalic or saphenous veins using sterile disposable cannulas and syringes. The volume of the dose of SET-M33 and control in two studies was 2, 5 and 5 mL/Kg body weight, respectively.
Viability/mortality were recorded at least twice daily. […] Injection sites were examined daily during dosing. For clinical investigation, blood obtained via jugular venepuncture from anaesthetized dogs was used to analyse blood, coagulation and biochemical parameters.

beagle dogs [3] = experiment: Four-week toxicity study with 4-week recovery in dogs: survival, ECG, NOAEL; assay type: in vivo, dog
Procedure: Beagle dogs (5/sex/group) were dosed by intravenous infusion once daily for 1 h with 0 (0.9% sodium chloride for injection), 0.5, 1.5 or 4.0 mg/kg/day SET-M33 for four consecutive weeks. The doses were selected in the dog DRF study (above). The dose of 4 mg/kg/day was selected as the highest dose without macroscopic side effects in the DRF study, and was used to evaluate renal toxicity and its reversibility. The dose of 0.5 mg/kg/day was selected as the lowest dose, about one order of magnitude less than the highest dose. The dose of 1.5 mg/kg/day was selected as an approximately median mid-dose. On completion of 4 weeks of infusion, three animals/sex/group were euthanized and necropsied and the remaining two animals/sex/group were held for a 4-week drug free recovery period after which they were euthanized and necropsied. Blood samples were obtained from all animals on days 1 and 28 for toxicokinetic analysis.
Animals were observed daily for mortality and signs of severe toxic or pharmacological effects. […] Blood obtained via jugular venepuncture from anaesthetized dogs was used to analyse blood, coagulation and clinical chemistry parameters for 5 animals/sex/group pre-test and at termination of dosing and from 2 animals/sex/group at the end of recovery.

P. aeruginosa = details: cited from earlier work

CC[C@H](C)[C@H](NC(=O)[C@H](CCCCN)NC(=O)[C@@H](N)CCCCN)C(=O)N[C@@H](CCCNC(=N)N)C(=O)N[C@H](C(=O)N[C@@H](CCCNC(=N)N)C(=O)N[C@@H](CC(C)C)C(=O)N[C@@H](CO)C(=O)N[C@@H](C)C(=O)NCCCC[C@H](NC(=O)[C@H](C)NC(=O)[C@H](CO)NC(=O)[C@H](CC(C)C)NC(=O)[C@H](CCCNC(=N)N)NC(=O)[C@@H](NC(=O)[C@H](CCCNC(=N)N)NC(=O)[C@@H](NC(=O)[C@H](CCCCN)NC(=O)[C@@H](N)CCCCN)[C@@H](C)CC)C(C)C)C(=O)NCCCC[C@H](NC(=O)[C@H](CCCCNC(=O)[C@H](C)NC(=O)[C@H](CO)NC(=O)[C@H](CC(C)C)NC(=O)[C@H](CCCNC(=N)N)NC(=O)[C@@H](NC(=O)[C@H](CCCNC(=N)N)NC(=O)[C@@H](NC(=O)[C@H](CCCCN)NC(=O)[C@@H](N)CCCCN)[C@@H](C)CC)C(C)C)NC(=O)[C@H](C)NC(=O)[C@H](CO)NC(=O)[C@H](CC(C)C)NC(=O)[C@H](CCCNC(=N)N)NC(=O)[C@@H](NC(=O)[C@H](CCCNC(=N)N)NC(=O)[C@@H](NC(=O)[C@H](CCCCN)NC(=O)[C@@H](N)CCCCN)[C@@H](C)CC)C(C)C)C(=O)NCCC(=O)O)C(C)C [SET-M33] (I: H-KKIRVRLSAKK[βAla]-OH / II: H-KKIRVRLSAK / III: H-KKIRVRLSA / IV: H-KKIRVRLSA; amide I:10-IV:C, I:11-II:C, II:10-III:C (inferred); N-terminus and C-terminus assumed)
quantifiable plasma concentrations until, post-dose [1]: 1 h | quantifiable plasma concentrations until, post-dose ([1]; iv, 10 mg/kg/day): 0.5 to 1 h | quantifiable plasma concentrations until, post-dose ([1]; iv, 20 mg/kg/day): up to 24 h | mean AUCt ratio, low vs. high dose (theoretical ratio 2) ([1]; day 1): 2.2 | mean Cmax ratio, low vs. high dose (theoretical ratio 2) ([1]; day 1): 2.4 to 2.7 | mean AUCt ratio, low vs. high dose (theoretical ratio 2) ([1]; day 7): 9.8–14.0 | mean Cmax ratio, low vs. high dose (theoretical ratio 2) ([1]; day 7): 2.8–7.2 | cervical and vaginal epithelial atrophy, incidence (Sprague Dawley rats): 1 out of 5 | survival (beagle dogs [2]; dogs, 4.0 and 8.0 mg/kg/day 30-min iv infusion, 7 days): All animals survived the scheduled period | loss of body weight with respect to day 1 (beagle dogs [2]; one dog, 8 mg/kg/day 30-min iv infusion, end of 7-day treatment): 9.4% | effect on heart function, ECG parameters (heart rate, PR, QRS, QT and QTc intervals) (beagle dogs [3]; beagle dogs, daily iv infusion at ≥ 0.5 mg/kg/day, males and females): did not produce any observable effect on heart function | survival (beagle dogs [3]; dogs, 0.5, 1.5 or 4.0 mg/kg/day 1-h iv infusion, 4 weeks + 4-week recovery): All animals survived until their scheduled termination | MIC50 (P. aeruginosa): 1.4 µM (≈ 6.56 µg/mL) | MIC90 (P. aeruginosa): 1.4 µM (≈ 6.56 µg/mL)
